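All cell lines were grown in 96-well plates and treated with compound for 48 hours. GI50 = concentration required for 50% inhibition of growth. TGI: concentration producing complete growth inhibition.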
What was measured:
Test in all cases: NCI anticancer screen, dose series, 48 h
[1] = tested on: SF-539 CNS
[2] = tested on: HOP-62 NSCLC
[3] = tested on: UO-31 renal
[4] = tested on: OVCAR-4 ovarian
[5] = tested on: NCI-H522 lung
[6] = tested on: OVCAR-3 ovarian
[7] = tested on: UACC-62 melanoma
[8] = tested on: CCRF-CEM leukemia
[9] = tested on: MCF7 breast
[10] = tested on: SF-268 CNS

Structure (SMILES): COc1ccc(-c2[nH]c3ccccc3c2-c2ccc(OC)cc2)cc1
- GI50 [1]: 3050 nM
- TGI [1]: 10.4 µM
- GI50 [2]: 10200 nM
- TGI [2]: 26.2 µM
- GI50 [3]: 3290 nM
- TGI [3]: 15.5 µM
- GI50 [4]: 7.66 µM
- TGI [4]: 23.6 µM
- GI50 [5]: 12000 nM
- TGI [5]: 40.7 µM
- GI50 [6]: 2.18 µM
- TGI [6]: 5.27 µM
- GI50 [7]: 6250 nM
- TGI [7]: 22 µM
- GI50 [8]: 2850 nM
- TGI [8]: > 100 µM
- GI50 [9]: 2870 nM
- TGI [9]: 12.4 µM
- GI50 [10]: 3.99 µM
- TGI [10]: 15.1 µM

Structure (SMILES): COC1C=COC2(C)Oc3c(C)c(O)c4c(c3C2=O)/C(=N/C2CCC(O)OC2C)C=C(NC(=O)/C(C)=C\C(=O)C2CC2C(O)C(C)C(O)C(C)C(OC(C)=O)C1C)C4=O (stereo not given)
- TGI [1]: 5.34 µM
- TGI [2]: 8.75 µM
- TGI [3]: 5.59 µM
- TGI [4]: 10.6 µM
- TGI [5]: 2.79 µM
- TGI [6]: 5.21 µM
- TGI [7]: 4.3 µM
- TGI [8]: 10.9 µM
- TGI [9]: 4.74 µM
- TGI [10]: 10.5 µM

Structure (SMILES): COc1ccc2cc1Oc1ccc(cc1)C[C@H]1c3c(cc4c(c3Oc3cc5c(cc3OC)CCN(C)[C@@H]5C2)OCO4)CCN1C
- GI50 [1]: 826 nM
- TGI [1]: 1.63 µM
- GI50 [2]: 2980 nM
- TGI [2]: 9.6 µM
- GI50 [3]: 5410 nM
- TGI [3]: 11.7 µM
- GI50 [4]: 2.52 µM
- TGI [4]: 12.3 µM
- GI50 [5]: 1430 nM
- TGI [5]: 6.77 µM
- GI50 [6]: 5.38 µM
- TGI [6]: 15 µM
- GI50 [7]: 1810 nM
- TGI [7]: 6.16 µM
- GI50 [8]: 1530 nM
- TGI [8]: 7.77 µM
- GI50 [9]: 1850 nM
- TGI [9]: 7.4 µM
- GI50 [10]: 5.09 µM
- TGI [10]: 11.5 µM

Structure (SMILES): O=C1OC(=O)C(=C\c2ccc3c(c2)OCO3)/C1=C/c1ccc2c(c1)OCO2
- TGI [1]: > 100 µM
- TGI [2]: > 100 µM
- TGI [3]: > 100 µM
- TGI [4]: > 100 µM
- TGI [5]: > 100 µM
- TGI [6]: > 100 µM
- TGI [7]: > 100 µM
- TGI [8]: > 88.6 µM
- TGI [9]: > 100 µM
- TGI [10]: > 100 µM

Structure (SMILES): O=C(NN1C(=O)CSC12CCCCC2)c1[nH]c2ccc(Br)cc2c1-c1ccccc1
- GI50 [1]: 21000 nM
- TGI [1]: 39.9 µM
- GI50 [2]: 23600 nM
- TGI [2]: 51.4 µM
- GI50 [3]: 22400 nM
- TGI [3]: 68.9 µM
- GI50 [4]: 13.3 µM
- TGI [4]: 39.6 µM
- GI50 [5]: 18700 nM
- TGI [5]: 49.5 µM
- GI50 [6]: 15.5 µM
- TGI [6]: 29.4 µM
- GI50 [7]: 10900 nM
- TGI [7]: 39.8 µM
- GI50 [8]: 19600 nM
- TGI [8]: 52.8 µM
- GI50 [9]: 14600 nM
- TGI [9]: 31.5 µM
- GI50 [10]: 20.3 µM
- TGI [10]: 67.1 µM

Structure (SMILES): COc1cc2nc(N3CCCC3)nc(NCCc3ccccc3)c2cc1OC
- GI50 [1]: 1780 nM
- TGI [1]: 3.21 µM
- GI50 [2]: 1930 nM
- TGI [2]: 3.86 µM
- GI50 [3]: 1290 nM
- TGI [3]: 2.69 µM
- GI50 [4]: 1.76 µM
- TGI [4]: 3.71 µM
- GI50 [5]: 1990 nM
- TGI [5]: 4.54 µM
- GI50 [6]: 1.96 µM
- TGI [6]: 3.68 µM
- GI50 [7]: 1650 nM
- TGI [7]: 3.06 µM
- GI50 [8]: 1440 nM
- TGI [8]: 10.6 µM
- GI50 [9]: 1170 nM
- TGI [9]: 2.85 µM
- GI50 [10]: 1.97 µM
- TGI [10]: 3.95 µM

Structure (SMILES): CC(C)NCCCn1c(Sc2cc3c(cc2I)OCO3)nc2c(N)ncnc21
- GI50 [1]: 858 nM
- TGI [1]: > 68.4 µM
- GI50 [2]: 263 nM
- TGI [2]: > 100 µM
- GI50 [3]: 323 nM
- TGI [3]: 7.13 µM
- GI50 [4]: > 33.3 µM
- TGI [4]: > 100 µM
- GI50 [5]: 58.8 nM
- TGI [5]: > 100 µM
- GI50 [6]: 0.585 µM
- TGI [6]: > 100 µM
- GI50 [7]: 368 nM
- TGI [7]: > 41 µM
- GI50 [8]: 425 nM
- TGI [8]: > 100 µM
- GI50 [9]: 45.3 nM
- TGI [9]: > 100 µM
- GI50 [10]: 2.1 µM
- TGI [10]: > 100 µM

Structure (SMILES): N#Cc1c(N2CCOCC2)nc(=S)[nH]c1-c1ccco1
- GI50 [1]: 6340 nM
- TGI [1]: 69.9 µM
- GI50 [2]: 2950 nM
- TGI [2]: 9.16 µM
- GI50 [3]: 2670 nM
- TGI [3]: 72.3 µM
- GI50 [4]: 16.9 µM
- TGI [4]: > 100 µM
- GI50 [5]: 3950 nM
- TGI [5]: > 100 µM
- GI50 [6]: 7.93 µM
- TGI [6]: 49.8 µM
- GI50 [7]: 2910 nM
- TGI [7]: 32.7 µM
- GI50 [8]: 5520 nM
- TGI [8]: 52 µM
- GI50 [9]: 2120 nM
- TGI [9]: > 100 µM
- GI50 [10]: 10.9 µM
- TGI [10]: > 100 µM

Reference: PubChem BioAssay (NCI)
